Square brackets hold non-standard residues; d marks the D form. Peptide text beside a SMILES is read from it. Tic = O=C(O)[C@@H]1Cc2ccccc2CN1
What follows are compounds tested against T1, Dipeptidyl peptidase 4 (Homo sapiens, UniProt P27487) (assay: Percent inhibition against Dipeptidyl peptidase IV (DPP IV) at a concentration of 1 uM).
T1 sequence (P27487 whole entry, looked up): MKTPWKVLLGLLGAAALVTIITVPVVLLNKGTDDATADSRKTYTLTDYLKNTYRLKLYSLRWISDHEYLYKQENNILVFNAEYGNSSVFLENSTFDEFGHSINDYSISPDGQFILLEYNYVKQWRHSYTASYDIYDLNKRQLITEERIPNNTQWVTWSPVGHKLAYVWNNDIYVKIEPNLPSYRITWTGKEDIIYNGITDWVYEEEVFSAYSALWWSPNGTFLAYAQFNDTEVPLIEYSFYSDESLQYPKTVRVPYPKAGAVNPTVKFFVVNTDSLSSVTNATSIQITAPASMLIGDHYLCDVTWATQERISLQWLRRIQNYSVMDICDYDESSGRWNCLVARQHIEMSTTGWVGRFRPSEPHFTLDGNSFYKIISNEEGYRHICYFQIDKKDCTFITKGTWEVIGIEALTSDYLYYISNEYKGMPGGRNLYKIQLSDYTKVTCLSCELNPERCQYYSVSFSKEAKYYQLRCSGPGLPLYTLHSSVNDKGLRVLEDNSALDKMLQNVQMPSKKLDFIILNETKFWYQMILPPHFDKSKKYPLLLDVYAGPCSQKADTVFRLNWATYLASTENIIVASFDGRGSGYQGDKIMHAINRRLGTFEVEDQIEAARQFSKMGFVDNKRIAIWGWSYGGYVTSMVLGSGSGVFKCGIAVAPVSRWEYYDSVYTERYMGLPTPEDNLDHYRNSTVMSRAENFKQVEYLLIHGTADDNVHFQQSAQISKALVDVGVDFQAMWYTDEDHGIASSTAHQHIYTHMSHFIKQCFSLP

| inhibition [%] | Structure (SMILES) |
| --- | --- |
| 61 | CC[C@H](C)[C@H](NC(=O)[C@H](Cc1c[nH]cn1)NC(=O)CNC(=O)[C@H](CCC(=O)O)NC(=O)[C@H](CCC(N)=O)NC(=O)[C@H](CC(=O)O)NC(=O)[C@H](CC(N)=O)NC(=O)[C@H](CCCN=C(N)N)NC(=O)[C@H](C)NC(=O)[C@@H]1Cc2ccccc2CN1C(=O)[C@@H](N)Cc1c[nH]c2ccccc12)C(=O)N[C@@H](CC(C)C)C(=O)N[C@@H](CCCCN)C(=O)N[C@@H](CCSC)C(=O)N[C@@H](Cc1ccccc1)C(=O)N1CCC[C@H]1C(=O)N[C@@H](CO)C(=O)N[C@H](C(=O)N[C@@H](Cc1c[nH]c2ccccc12)C(=O)N[C@@H](Cc1ccc(O)cc1)C(=O)N[C@H](C(=O)O)C(C)C)[C@@H](C)O (H-W[Tic]ARNDQEGHILKMFPSTWYV-OH) |
| 8 | CC[C@H](C)[C@H](NC(=O)[C@H](Cc1c[nH]cn1)NC(=O)CNC(=O)[C@H](CCC(=O)O)NC(=O)[C@H](CCC(N)=O)NC(=O)[C@H](CC(=O)O)NC(=O)[C@H](CC(N)=O)NC(=O)[C@H](CCCN=C(N)N)NC(=O)[C@H](C)NC(=O)[C@@H]1Cc2ccccc2CN1C(=O)[C@@H](N)CC(=O)O)C(=O)N[C@@H](CC(C)C)C(=O)N[C@@H](CCCCN)C(=O)N[C@@H](CCSC)C(=O)N[C@@H](Cc1ccccc1)C(=O)N1CCC[C@H]1C(=O)N[C@@H](CO)C(=O)N[C@H](C(=O)N[C@@H](Cc1c[nH]c2ccccc12)C(=O)N[C@@H](Cc1ccc(O)cc1)C(=O)N[C@H](C(=O)O)C(C)C)[C@@H](C)O (H-D[Tic]ARNDQEGHILKMFPSTWYV-OH) |
| 9 | CC[C@H](C)[C@H](NC(=O)[C@H](Cc1c[nH]cn1)NC(=O)CNC(=O)[C@H](CCC(=O)O)NC(=O)[C@H](CCC(N)=O)NC(=O)[C@H](CC(=O)O)NC(=O)[C@H](CC(N)=O)NC(=O)[C@H](CCCN=C(N)N)NC(=O)[C@H](C)NC(=O)[C@@H]1Cc2ccccc2CN1C(=O)[C@@H](N)CC(N)=O)C(=O)N[C@@H](CC(C)C)C(=O)N[C@@H](CCCCN)C(=O)N[C@@H](CCSC)C(=O)N[C@@H](Cc1ccccc1)C(=O)N1CCC[C@H]1C(=O)N[C@@H](CO)C(=O)N[C@H](C(=O)N[C@@H](Cc1c[nH]c2ccccc12)C(=O)N[C@@H](Cc1ccc(O)cc1)C(=O)N[C@H](C(=O)O)C(C)C)[C@@H](C)O (H-N[Tic]ARNDQEGHILKMFPSTWYV-OH) |
| 12 | CC[C@H](C)[C@H](NC(=O)[C@H](Cc1c[nH]cn1)NC(=O)CNC(=O)[C@H](CCC(=O)O)NC(=O)[C@H](CCC(N)=O)NC(=O)[C@H](CC(=O)O)NC(=O)[C@H](CC(N)=O)NC(=O)[C@H](CCCN=C(N)N)NC(=O)[C@H](C)NC(=O)[C@@H]1Cc2ccccc2CN1C(=O)[C@@H](N)Cc1ccc(O)cc1)C(=O)N[C@@H](CC(C)C)C(=O)N[C@@H](CCCCN)C(=O)N[C@@H](CCSC)C(=O)N[C@@H](Cc1ccccc1)C(=O)N1CCC[C@H]1C(=O)N[C@@H](CO)C(=O)N[C@H](C(=O)N[C@@H](Cc1c[nH]c2ccccc12)C(=O)N[C@@H](Cc1ccc(O)cc1)C(=O)N[C@H](C(=O)O)C(C)C)[C@@H](C)O (H-Y[Tic]ARNDQEGHILKMFPSTWYV-OH) |
| 6 | CC[C@H](C)[C@H](N)C(=O)N1Cc2ccccc2C[C@H]1C(=O)N[C@@H](C)C(=O)N[C@@H](CCCN=C(N)N)C(=O)N[C@@H](CC(N)=O)C(=O)N[C@@H](CC(=O)O)C(=O)N[C@@H](CCC(N)=O)C(=O)N[C@@H](CCC(=O)O)C(=O)NCC(=O)N[C@@H](Cc1c[nH]cn1)C(=O)N[C@H](C(=O)N[C@@H](CC(C)C)C(=O)N[C@@H](CCCCN)C(=O)N[C@@H](CCSC)C(=O)N[C@@H](Cc1ccccc1)C(=O)N1CCC[C@H]1C(=O)N[C@@H](CO)C(=O)N[C@H](C(=O)N[C@@H](Cc1c[nH]c2ccccc12)C(=O)N[C@@H](Cc1ccc(O)cc1)C(=O)N[C@H](C(=O)O)C(C)C)[C@@H](C)O)[C@@H](C)CC (H-I[Tic]ARNDQEGHILKMFPSTWYV-OH) |
| 2 | CC[C@H](C)[C@H](NC(=O)[C@H](Cc1c[nH]cn1)NC(=O)CNC(=O)[C@H](CCC(=O)O)NC(=O)[C@H](CCC(N)=O)NC(=O)[C@H](CC(=O)O)NC(=O)[C@H](CC(N)=O)NC(=O)[C@H](CCCN=C(N)N)NC(=O)[C@H](C)NC(=O)[C@@H]1Cc2ccccc2CN1C(=O)[C@H]1CCCN1)C(=O)N[C@@H](CC(C)C)C(=O)N[C@@H](CCCCN)C(=O)N[C@@H](CCSC)C(=O)N[C@@H](Cc1ccccc1)C(=O)N1CCC[C@H]1C(=O)N[C@@H](CO)C(=O)N[C@H](C(=O)N[C@@H](Cc1c[nH]c2ccccc12)C(=O)N[C@@H](Cc1ccc(O)cc1)C(=O)N[C@H](C(=O)O)C(C)C)[C@@H](C)O |
| 4 | CC[C@H](C)[C@H](NC(=O)[C@H](Cc1c[nH]cn1)NC(=O)CNC(=O)[C@H](CCC(=O)O)NC(=O)[C@H](CCC(N)=O)NC(=O)[C@H](CC(=O)O)NC(=O)[C@H](CC(N)=O)NC(=O)[C@H](CCCN=C(N)N)NC(=O)[C@H](C)NC(=O)[C@@H]1Cc2ccccc2CN1C(=O)[C@@H](N)CCC(=O)O)C(=O)N[C@@H](CC(C)C)C(=O)N[C@@H](CCCCN)C(=O)N[C@@H](CCSC)C(=O)N[C@@H](Cc1ccccc1)C(=O)N1CCC[C@H]1C(=O)N[C@@H](CO)C(=O)N[C@H](C(=O)N[C@@H](Cc1c[nH]c2ccccc12)C(=O)N[C@@H](Cc1ccc(O)cc1)C(=O)N[C@H](C(=O)O)C(C)C)[C@@H](C)O (H-E[Tic]ARNDQEGHILKMFPSTWYV-OH) |
| 7 | CC[C@H](C)[C@H](NC(=O)[C@H](Cc1c[nH]cn1)NC(=O)CNC(=O)[C@H](CCC(=O)O)NC(=O)[C@H](CCC(N)=O)NC(=O)[C@H](CC(=O)O)NC(=O)[C@H](CC(N)=O)NC(=O)[C@H](CCCN=C(N)N)NC(=O)[C@H](C)NC(=O)[C@@H]1Cc2ccccc2CN1C(=O)[C@@H](N)Cc1c[nH]cn1)C(=O)N[C@@H](CC(C)C)C(=O)N[C@@H](CCCCN)C(=O)N[C@@H](CCSC)C(=O)N[C@@H](Cc1ccccc1)C(=O)N1CCC[C@H]1C(=O)N[C@@H](CO)C(=O)N[C@H](C(=O)N[C@@H](Cc1c[nH]c2ccccc12)C(=O)N[C@@H](Cc1ccc(O)cc1)C(=O)N[C@H](C(=O)O)C(C)C)[C@@H](C)O (H-H[Tic]ARNDQEGHILKMFPSTWYV-OH) |

The compounds below were run against T1, Dipeptidyl peptidase 4 (assay: Percent inhibition of Dipeptidyl peptidase IV (DPP IV) at a concentration of 10 uM).

| Structure (SMILES) | inhibition [%] |
| --- | --- |
| N[C@@H](Cc1c[nH]c2ccccc12)C(=O)N1Cc2ccccc2C[C@H]1C(=O)N[C@@H](Cc1c[nH]c2ccccc12)C(=O)O (H-Trp-[Tic]-Trp-OH) | 37 |
| N[C@@H](Cc1c[nH]c2ccccc12)C(=O)N1CCC[C@H]1C(=O)O (H-Trp-Pro-OH) | 15 |
| N[C@@H](Cc1c[nH]c2ccccc12)C(=O)N1Cc2ccccc2C[C@H]1C(=O)N1CCC[C@H]1C(=O)O (H-Trp-[Tic]-Pro-OH) | 20 |
| NC(N)=NCCC[C@H](NC(=O)[C@@H]1Cc2ccccc2CN1C(=O)[C@@H](N)Cc1c[nH]c2ccccc12)C(=O)O (H-Trp-[Tic]-Arg-OH) | 38 |
| N[C@@H](Cc1c[nH]c2ccccc12)C(=O)N1Cc2ccccc2C[C@H]1C(=O)NCC(=O)O (H-Trp-[Tic]-Gly-OH) | 34 |
| CC(C)[C@H](NC(=O)[C@@H]1Cc2ccccc2CN1C(=O)[C@@H](N)Cc1c[nH]c2ccccc12)C(=O)O (H-Trp-[Tic]-Val-OH) | 19 |
| CC[C@@H](C)[C@H](NC(=O)[C@@H]1Cc2ccccc2CN1C(=O)[C@@H](N)Cc1c[nH]c2ccccc12)C(=O)O | 32 |
| NCCCC[C@H](NC(=O)[C@@H]1Cc2ccccc2CN1C(=O)[C@@H](N)Cc1c[nH]c2ccccc12)C(=O)O (H-Trp-[Tic]-Lys-OH) | 27 |
| C[C@H](O)[C@H](NC(=O)[C@@H]1Cc2ccccc2CN1C(=O)[C@@H](N)Cc1c[nH]c2ccccc12)C(=O)O | 37 |

More lines, now with the values ahead:

| inhibition [%] | Structure (SMILES) |
| --- | --- |
| 29 | N[C@@H](Cc1c[nH]c2ccccc12)C(=O)N1Cc2ccccc2C[C@H]1C(=O)N[C@@H](Cc1ccccc1)C(=O)O (H-Trp-[Tic]-Phe-OH) |
| 49 | N[C@@H](Cc1c[nH]c2ccccc12)C(=O)N1Cc2ccccc2C[C@H]1C(=O)N[C@@H](CS)C(=O)O (H-Trp-[Tic]-Cys-OH) |
| 49 | NC(=O)CC[C@H](NC(=O)[C@@H]1Cc2ccccc2CN1C(=O)[C@@H](N)Cc1c[nH]c2ccccc12)C(=O)O (H-Trp-[Tic]-Gln-OH) |
| 35 | N[C@@H](Cc1c[nH]c2ccccc12)C(=O)N1Cc2ccccc2C[C@H]1C(=O)N[C@@H](Cc1c[nH]cn1)C(=O)O (H-Trp-[Tic]-His-OH) |
| 2 | N[C@@H](Cc1c[nH]c2ccccc12)C(=O)N[C@@H](Cc1c[nH]c2ccccc12)C(=O)O (H-Trp-Trp-OH) |
| 36 | N[C@@H](Cc1c[nH]c2ccccc12)C(=O)N1Cc2ccccc2C[C@H]1C(=O)N[C@@H](Cc1ccc(O)cc1)C(=O)O (H-Trp-[Tic]-Tyr-OH) |
| 10 | N[C@@H](Cc1c[nH]c2ccccc12)C(=O)N[C@@H](Cc1ccc(O)cc1)C(=O)O (H-Trp-Tyr-OH) |
| 38 | N[C@@H](Cc1c[nH]c2ccccc12)C(=O)N1Cc2ccccc2C[C@H]1C(=O)N[C@@H](CC(=O)O)C(=O)O (H-Trp-[Tic]-Asp-OH) |
| 25 | CC(C)C[C@H](NC(=O)[C@@H]1Cc2ccccc2CN1C(=O)[C@@H](N)Cc1c[nH]c2ccccc12)C(=O)O (H-Trp-[Tic]-Leu-OH) |
| 46 | NC(=O)C[C@H](NC(=O)[C@@H]1Cc2ccccc2CN1C(=O)[C@@H](N)Cc1c[nH]c2ccccc12)C(=O)O (H-Trp-[Tic]-Asn-OH) |
| 3 | N[C@@H](Cc1c[nH]c2ccccc12)C(=O)N[C@@H](CCC(=O)O)C(=O)O (H-Trp-Glu-OH) |
| 43 | CSCC[C@H](NC(=O)[C@@H]1Cc2ccccc2CN1C(=O)[C@@H](N)Cc1c[nH]c2ccccc12)C(=O)O (H-Trp-[Tic]-Met-OH) |
| 0 | N[C@@H](Cc1c[nH]c2ccccc12)C(=O)N[C@@H](Cc1ccccc1)C(=O)O (H-Trp-Phe-OH) |
| 43 | C[C@H](NC(=O)[C@@H]1Cc2ccccc2CN1C(=O)[C@@H](N)Cc1c[nH]c2ccccc12)C(=O)O (H-Trp-[Tic]-Ala-OH) |
| 4 | CC(C)[C@H](NC(=O)[C@@H](N)Cc1c[nH]c2ccccc12)C(=O)O (H-Trp-Val-OH) |
